Tested on: KRAS patient-derived spheroids with HUVEC/MSC, viability
Assay: Anticancer human tumor 323965-272-R-J2-PDC patient-derived pancreatic carcinoma cell line growth inhibition [KRAS2]
Details: for IC50: curve of first compound; for viability, T/C: stronger effect = lower value
Procedure, shortened: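 Combination screen of spheroid viability in tumor-cell co-cultures with endothelial (HUVEC) and mesenchymal stem cell stroma. Each agent was tested in half-log dilutions, topping at clinical Cmax or at 10 microM without a known Cmax.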

[1] = second compound 0.1 µM, first compound 0.0316 µM
[2] = second compound 0.1 µM, first compound 0.1 µM
[3] = second compound 0.1 µM, first compound 0.316 µM
[4] = second compound 0.1 µM, first compound 1 µM
[5] = second compound 0.1 µM, first compound 3.16 µM
[6] = second compound 0.1 µM, first compound 10 µM
[7] = second compound 0.316 µM, first compound 0.0316 µM
[8] = second compound 0.316 µM, first compound 0.1 µM
[9] = second compound 0.316 µM, first compound 0.316 µM
[10] = second compound 0.316 µM, first compound 1 µM
[11] = second compound 0.316 µM, first compound 3.16 µM
[12] = second compound 0.316 µM, first compound 10 µM
[13] = second compound 1 µM, first compound 0.0316 µM
[14] = second compound 1 µM, first compound 0.1 µM
[15] = second compound 1 µM, first compound 0.316 µM
[16] = second compound 1 µM, first compound 1 µM
[17] = second compound 1 µM, first compound 3.16 µM
[18] = second compound 1 µM, first compound 10 µM
[19] = second compound 3.16 µM, first compound 0.0316 µM
[20] = second compound 3.16 µM, first compound 0.1 µM
[21] = second compound 3.16 µM, first compound 0.316 µM
[22] = second compound 3.16 µM, first compound 1 µM
[23] = second compound 3.16 µM, first compound 3.16 µM
[24] = second compound 3.16 µM, first compound 10 µM
[25] = second compound 10 µM, first compound 0.0316 µM
[26] = second compound 10 µM, first compound 0.1 µM
[27] = second compound 10 µM, first compound 0.316 µM
[28] = second compound 10 µM, first compound 1 µM
[29] = second compound 10 µM, first compound 3.16 µM
[30] = second compound 10 µM, first compound 10 µM
[31] = second compound 0.0316 µM, first compound 0.0316 µM
[32] = second compound 0.0316 µM, first compound 0.1 µM
[33] = second compound 0.0316 µM, first compound 0.316 µM
[34] = second compound 0.0316 µM, first compound 1 µM
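Also: spheroids exposed to agents for 7 days.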
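For viability, T/C in this document: 100% = DMSO vehicle control viability.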

Compound | IC50 (second compound 0.1 µM) [µM] | IC50 (second compound 0.316 µM) [µM] | IC50 (second compound 1 µM) [µM] | IC50 (second compound 3.16 µM) [µM] | viability, T/C [1] [%] | viability, T/C [2] [%] | viability, T/C [3] [%] | viability, T/C [4] [%] | viability, T/C [7] [%] | viability, T/C [8] [%] | viability, T/C [9] [%] | viability, T/C [10] [%] | viability, T/C [13] [%] | viability, T/C [14] [%] | viability, T/C [15] [%] | viability, T/C [16] [%] | viability, T/C [19] [%] | viability, T/C [20] [%] | viability, T/C [21] [%] | viability, T/C [22] [%] | also measured
CC1(C)CCC(CN2CCN(c3ccc(C(=O)NS(=O)(=O)c4ccc(NCC5CCOCC5)c([N+](=O)[O-])c4)c(Oc4cnc5[nH]ccc5c4)c3)CC2)=C(c2ccc(Cl)cc2)C1 + CNCc1ccccc1-c1csc(C(C)Nc2nc(C)nc3cc(OC)c(OC)cc23)c1 | 1.82 | 1.68 | 1.91 | 1.43 | 94.5 | 94.2 | 86.2 | 87.8 | 83 | 91.8 | 92.5 | 81.2 | 106 | 104 | 99.2 | 94.8 | 104 | 102 | 98.7 | 71.3 | IC50 (second compound 10 µM): < 0.0316 µM; viability, T/C [5]: 14.9%; viability, T/C [6]: 5.18%; viability, T/C [11]: 12%; viability, T/C [12]: 2.51%; viability, T/C [17]: 15.3%; viability, T/C [18]: 1.65%; viability, T/C [23]: 1.61%; viability, T/C [24]: 1.05%; viability, T/C [25]: 0.23%; viability, T/C [26]: 0.28%; viability, T/C [27]: 0.27%; viability, T/C [28]: 0.19%; viability, T/C [29]: 0.14%; viability, T/C [30]: 0.18%
CCN1CCN(Cc2ccc(Nc3ncc(F)c(-c4cc(F)c5nc(C)n(C(C)C)c5c4)n3)nc2)CC1 + C=CC(=O)N1CCN(c2nc(OCC3CCCN3C)nc3c2CCN(c2cccc4cccc(C)c24)C3)CC1CC#N | 0.00498 | < 0.00316 | 0.00625 | < 0.00316 | 39.1 | 31.2 | 31.7 | 44 | 33.8 | 32.8 | 31.9 | 38.8 | 36.6 | 28.8 | 30.3 | 36.1 | 3.68 | 2.57 | 3.48 | 0.89 | IC50 (second compound 0.0316 µM): 0.00821 µM; viability, T/C (second compound 0.0316 µM, first compound 0.00316 µM): 60.6%; viability, T/C (second compound 0.0316 µM, first compound 0.01 µM): 51.1%; viability, T/C [31]: 39.1%; viability, T/C [32]: 38.6%; viability, T/C [33]: 37.2%; viability, T/C [34]: 45.5%; viability, T/C (second compound 0.1 µM, first compound 0.00316 µM): 53.6%; viability, T/C (second compound 0.1 µM, first compound 0.01 µM): 46%; viability, T/C (second compound 0.316 µM, first compound 0.00316 µM): 45%; viability, T/C (second compound 0.316 µM, first compound 0.01 µM): 44.8%; viability, T/C (second compound 1 µM, first compound 0.00316 µM): 58.6%; viability, T/C (second compound 1 µM, first compound 0.01 µM): 45.9%; viability, T/C (second compound 3.16 µM, first compound 0.00316 µM): 3%; viability, T/C (second compound 3.16 µM, first compound 0.01 µM): 4.98%
CC(C)NCC(C(=O)N1CCN(c2ncnc3c2C(C)CC3O)CC1)c1ccc(Cl)cc1 (stereo not given) + COc1cc2nc(C)nc(NC(C)c3cc(N)cc(C(F)(F)F)c3)c2cc1OC1CCOC1 | 0.708 | 0.541 | 0.207 | 0.123 | 84.9 | 76 | 59.7 | 45.4 | 72.1 | 71.1 | 56.2 | 42.2 | 72.3 | 67.3 | 39.5 | 30.1 | 61.4 | 53 | 38.2 | 28.6 | IC50 (second compound 10 µM): 0.2 µM; viability, T/C [5]: 37.2%; viability, T/C [6]: 31.3%; viability, T/C [11]: 28%; viability, T/C [12]: 24.5%; viability, T/C [17]: 27.8%; viability, T/C [18]: 22.6%; viability, T/C [23]: 24.8%; viability, T/C [24]: 21.8%; viability, T/C [25]: 57%; viability, T/C [26]: 68.9%; viability, T/C [27]: 41.4%; viability, T/C [28]: 39%; viability, T/C [29]: 28.4%; viability, T/C [30]: 26.3%
CC1OCC2(CCN(c3cnc(Sc4ccnc(N)c4Cl)c(N)n3)CC2)C1N (stereo not given) + C=CC(=O)N1CCN(c2nc(OCC3CCCN3C)nc3c2CCN(c2cccc4cccc(C)c24)C3)CC1CC#N | < 0.0316 | < 0.0316 | < 0.0316 | < 0.0316 | 38.4 | 31.9 | 21.5 | 15.1 | 41 | 30.5 | 18.4 | 17 | 35.2 | 28.9 | 15.7 | 13.5 | 1.93 | 1.12 | 0.53 | 0.65 | IC50 (second compound 0.0316 µM): 0.0369 µM; viability, T/C [31]: 51.4%; viability, T/C [32]: 39.2%; viability, T/C [33]: 24.4%; viability, T/C [34]: 19.3%; viability, T/C (second compound 0.0316 µM, first compound 3.16 µM): 12.3%; viability, T/C (second compound 0.0316 µM, first compound 10 µM): 9.85%; viability, T/C [5]: 10.7%; viability, T/C [6]: 10.8%; viability, T/C [11]: 10.8%; viability, T/C [12]: 9.7%; viability, T/C [17]: 11.6%; viability, T/C [18]: 10%; viability, T/C [23]: 1.07%; viability, T/C [24]: 1.33%
